The test system of this experiment is Male SHRs. As to the kind of experiment: Antihypertensive effect: mean blood pressure in male SHRs after oral administration. To be noted: male SHR, dose 3 mg/kg, MBP measured during 24 hours. The class given is in vivo, rat. On the procedure:
Male SHRs (28-40 weeks old, Japan SLC, Inc., Japan) were anesthetized with sodium pentobarbital (50 mg/kg, i.p.). The left femoral artery was cannulated with a polyethylene catheter filled with saline comprising heparin (200 U/mL). The catheter was exteriorized at the back of the neck and each SHR was individually housed in a cage and left two or four days to recover. The mean blood pressure (MBP) was obtained from the systemic blood pressure which was monitored from the femoral artery using a pressure transducer connected to a polygraph system (Nihon Kohden Corporation). The heart rate was measured from the blood pressure pulse intervals. The rats which had MBP over 150 mmHg were used for the experiment. When the blood pressure had stabilized, vehicle (0.5 w/v % methylcellulose) or compounds were orally administered. All compounds were suspended in 0.5 w/v % methylcellulose and orally administered at a volume of 2 mL/kg. The MBP was measured during 24 hours after the administration.

Where a name gives a salt, the structure may show the parent alone.

The source of these data is patent US8283353B2, “Fused ring compound and use thereof” (Takeda Pharmaceutical Company Limited, priority 2009, dated 2012).

Consider `CCCc1c(Cc2ccc(-c3ccccc3-c3noc(=O)[nH]3)cc2)c(=O)n([C@H]2CC[C@H](OCC(C)(C)O)CC2)c2ccnn12` [Example 415, 4-[trans-4-(2-hydroxy-2-methylpropoxy)cyclohexyl]-6-{[2′-(5-oxo-4,5-dihydro-1,2,4-oxadiazol-3-yl)biphenyl-4-yl]methyl}-7-propylpyrazolo[1,5-a]pyrimidin-5(4H)-one potassium salt], for which the “Maximum MBP reduction (mmHg)” value stood at 63 mmHg.

With “(−)-6-{[3-fluoro-2′-(5-oxo-4,5-dihydro-1,2,4-oxadiazol-3-yl)biphenyl-4-yl]methyl}-4-[trans-4-(2-hydroxy-1,2-dimethylpropoxy)cyclohexyl]-7-propyl[1,2,4]triazolo[1,5-a]pyrimidin-5(4H)-one potassium salt (retention time: long) [Example 459]”, the “Maximum MBP reduction (mmHg)” value is reported as 64 mmHg.
